Here are results for 17 compounds from patent publication US6495715B2, “Calcium channel blockers” (Warner-Lambert Company, priority 1997, dated 2002).

One test relates to DBA/2 mice. The test can be described thus: Audiogenic seizure (anticonvulsant) test in DBA/2 mice. It counts as in vivo. The conditions noted are these: Mus musculus, intravenous, sound-induced tonic seizures, tested 15 or 45 minutes after injection, read-out: DBA/2 mice % Protection. The procedure: In vivo Biological Protocol:
A compound of the present invention was dissolved in water using 10% (weight/volume) Emulphor (GAF Corp., Wayne, N.J.) surfactant. Substances were administered by intravenous injection into the retro-orbital venous sinus. All testing was performed 15 minutes or 45 minutes after drug injection. All the male mice, 3-4 weeks old were obtained from Jackson Laboratories Bar Harbour, Me. Immediately before anticonvulsant testing, mice were placed upon a wire mesh, 4 inches square suspended from a steel rod. The square was slowly inverted through 180 degrees and mice observed for 30 seconds. Any mouse falling from the wire mesh was scored as ataxia.
Mice were placed into an enclosed acrylic plastic chamber (21 cm height, approximately 30 cm diameter) with a high-frequency speaker (4 cm diameter) in the center of the top lid. An audio signal generator (Protek model B-810) was used to produce a continuous sinusoidal tone that was swept linearly in frequency between 8 kHz and 16 kHz once each 10 msec. The average sound pressure level (SPL) during stimulation was approximately 100 dB at the floor of the chamber. Mice were placed within the chamber and allowed to acclimatize for 1 minute. DBA/2 mice in the vehicle-treated group responded to the sound stimulus (applied until tonic extension occurred, or for a maximum of 60 sec) with a characteristic seizure sequence consisting of wild running followed by clonic seizures, and later by tonic extension, and finally by respiratory arrest and death in 80% or more of the mice. In vehicle-treated mice, the entire sequence of seizures to respiratory arrest lasts approximately 15-20 seconds.
The incidence of all the seizure phases in the drug-treated and vehicle-treated mice was recorded, and the occurrence of tonic seizures were used for calculating anticonvulsant ED50 values by probit analysis. Mice were used only once for testing at each time and dose point.

A further test deals with T1, N-type Ca2+ channel (Homo sapiens, UniProt Q00975).
T1 construct: host or cells: IMR-32 cells, differentiated with dibutyryl cAMP and bromodeoxyuridine
T1 sequence (Q00975 whole entry): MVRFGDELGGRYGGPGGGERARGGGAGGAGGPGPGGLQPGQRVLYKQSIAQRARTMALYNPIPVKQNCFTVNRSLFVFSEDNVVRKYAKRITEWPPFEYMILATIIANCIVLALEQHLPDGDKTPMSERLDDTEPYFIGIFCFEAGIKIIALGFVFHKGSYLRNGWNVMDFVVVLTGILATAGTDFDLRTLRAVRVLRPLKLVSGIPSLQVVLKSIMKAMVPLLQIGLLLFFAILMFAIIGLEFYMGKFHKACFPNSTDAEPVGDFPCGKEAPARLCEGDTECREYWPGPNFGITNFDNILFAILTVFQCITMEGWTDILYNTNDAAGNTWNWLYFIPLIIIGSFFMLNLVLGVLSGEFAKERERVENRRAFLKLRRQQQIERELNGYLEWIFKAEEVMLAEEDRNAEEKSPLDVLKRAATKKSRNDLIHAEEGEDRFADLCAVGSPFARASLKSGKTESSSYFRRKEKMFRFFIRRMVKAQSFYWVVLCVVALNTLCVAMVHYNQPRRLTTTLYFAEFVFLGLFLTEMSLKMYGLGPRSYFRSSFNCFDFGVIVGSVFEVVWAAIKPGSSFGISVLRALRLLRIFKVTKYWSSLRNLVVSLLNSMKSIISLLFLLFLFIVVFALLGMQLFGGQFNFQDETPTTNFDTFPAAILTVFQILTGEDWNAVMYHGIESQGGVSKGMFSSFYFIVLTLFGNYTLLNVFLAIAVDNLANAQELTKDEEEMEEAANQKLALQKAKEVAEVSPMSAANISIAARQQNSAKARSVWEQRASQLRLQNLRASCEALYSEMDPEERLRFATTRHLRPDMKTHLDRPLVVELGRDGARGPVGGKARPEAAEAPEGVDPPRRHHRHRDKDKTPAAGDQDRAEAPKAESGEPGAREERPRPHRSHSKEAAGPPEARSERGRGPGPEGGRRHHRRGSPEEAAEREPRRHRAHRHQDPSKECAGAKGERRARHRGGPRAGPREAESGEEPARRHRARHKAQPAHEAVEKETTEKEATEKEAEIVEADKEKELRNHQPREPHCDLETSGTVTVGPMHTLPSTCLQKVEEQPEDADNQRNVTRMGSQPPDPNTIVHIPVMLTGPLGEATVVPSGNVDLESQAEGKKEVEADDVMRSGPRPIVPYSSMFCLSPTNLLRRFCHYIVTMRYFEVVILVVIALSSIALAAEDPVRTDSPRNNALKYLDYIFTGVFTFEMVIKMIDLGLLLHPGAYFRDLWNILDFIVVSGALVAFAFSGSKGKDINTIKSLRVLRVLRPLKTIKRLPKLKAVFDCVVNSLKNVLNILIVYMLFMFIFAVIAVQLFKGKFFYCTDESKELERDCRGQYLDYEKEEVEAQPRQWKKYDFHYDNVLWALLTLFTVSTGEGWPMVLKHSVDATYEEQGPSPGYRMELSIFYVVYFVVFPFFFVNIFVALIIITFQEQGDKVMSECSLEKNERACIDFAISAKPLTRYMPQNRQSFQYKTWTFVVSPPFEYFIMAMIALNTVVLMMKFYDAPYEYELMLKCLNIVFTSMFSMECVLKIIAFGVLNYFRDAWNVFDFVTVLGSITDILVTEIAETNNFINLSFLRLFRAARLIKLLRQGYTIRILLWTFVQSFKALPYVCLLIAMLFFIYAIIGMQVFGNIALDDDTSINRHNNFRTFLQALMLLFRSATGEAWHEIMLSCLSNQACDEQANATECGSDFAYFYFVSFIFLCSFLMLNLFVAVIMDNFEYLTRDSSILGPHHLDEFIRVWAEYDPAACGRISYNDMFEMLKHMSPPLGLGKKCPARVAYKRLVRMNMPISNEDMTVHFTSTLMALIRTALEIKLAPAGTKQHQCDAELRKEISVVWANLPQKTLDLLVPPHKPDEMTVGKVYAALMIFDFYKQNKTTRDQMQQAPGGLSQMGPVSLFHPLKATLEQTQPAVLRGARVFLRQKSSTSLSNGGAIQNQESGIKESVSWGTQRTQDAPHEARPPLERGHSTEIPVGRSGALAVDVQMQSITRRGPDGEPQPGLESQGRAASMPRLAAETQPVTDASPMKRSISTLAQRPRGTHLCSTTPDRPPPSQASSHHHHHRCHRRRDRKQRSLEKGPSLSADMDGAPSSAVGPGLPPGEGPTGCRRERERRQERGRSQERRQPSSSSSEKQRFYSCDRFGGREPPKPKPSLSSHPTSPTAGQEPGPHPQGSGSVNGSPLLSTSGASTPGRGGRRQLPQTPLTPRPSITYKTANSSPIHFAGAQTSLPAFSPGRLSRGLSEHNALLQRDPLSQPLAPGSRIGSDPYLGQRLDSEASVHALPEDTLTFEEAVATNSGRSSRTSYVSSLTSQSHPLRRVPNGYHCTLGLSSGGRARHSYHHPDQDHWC
T1 sequence (P54289 25-956 partner limits assumed): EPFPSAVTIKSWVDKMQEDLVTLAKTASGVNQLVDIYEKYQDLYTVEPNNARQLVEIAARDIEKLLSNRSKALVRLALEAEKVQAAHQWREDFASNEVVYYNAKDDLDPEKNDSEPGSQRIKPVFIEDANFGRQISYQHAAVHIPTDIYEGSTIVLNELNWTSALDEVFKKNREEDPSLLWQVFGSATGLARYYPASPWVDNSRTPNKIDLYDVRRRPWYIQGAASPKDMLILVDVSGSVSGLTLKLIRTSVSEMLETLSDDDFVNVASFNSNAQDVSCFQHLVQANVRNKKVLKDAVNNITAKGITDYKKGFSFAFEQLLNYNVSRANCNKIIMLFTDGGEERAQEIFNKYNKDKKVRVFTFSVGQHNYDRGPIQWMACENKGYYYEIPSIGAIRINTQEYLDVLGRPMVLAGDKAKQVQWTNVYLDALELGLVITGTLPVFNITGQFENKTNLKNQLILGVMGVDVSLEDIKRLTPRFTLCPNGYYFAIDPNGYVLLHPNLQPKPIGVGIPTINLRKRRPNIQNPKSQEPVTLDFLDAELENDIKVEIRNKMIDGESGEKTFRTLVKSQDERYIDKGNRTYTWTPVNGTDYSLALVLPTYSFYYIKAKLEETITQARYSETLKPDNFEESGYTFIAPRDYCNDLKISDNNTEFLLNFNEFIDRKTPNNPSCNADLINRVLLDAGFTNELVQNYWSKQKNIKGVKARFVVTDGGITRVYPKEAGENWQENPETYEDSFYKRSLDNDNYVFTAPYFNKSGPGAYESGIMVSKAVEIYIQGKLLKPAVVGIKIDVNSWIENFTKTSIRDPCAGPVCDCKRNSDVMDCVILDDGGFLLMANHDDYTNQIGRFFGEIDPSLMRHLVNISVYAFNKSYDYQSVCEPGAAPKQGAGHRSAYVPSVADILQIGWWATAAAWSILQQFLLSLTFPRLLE
T1 sequence (P54289 957-1103 partner limits assumed): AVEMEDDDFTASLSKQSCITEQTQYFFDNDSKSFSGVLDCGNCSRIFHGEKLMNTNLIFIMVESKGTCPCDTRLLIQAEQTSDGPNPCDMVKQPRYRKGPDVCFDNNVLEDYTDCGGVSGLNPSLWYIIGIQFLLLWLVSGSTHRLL
T1 sequence (Q02641 whole entry partner): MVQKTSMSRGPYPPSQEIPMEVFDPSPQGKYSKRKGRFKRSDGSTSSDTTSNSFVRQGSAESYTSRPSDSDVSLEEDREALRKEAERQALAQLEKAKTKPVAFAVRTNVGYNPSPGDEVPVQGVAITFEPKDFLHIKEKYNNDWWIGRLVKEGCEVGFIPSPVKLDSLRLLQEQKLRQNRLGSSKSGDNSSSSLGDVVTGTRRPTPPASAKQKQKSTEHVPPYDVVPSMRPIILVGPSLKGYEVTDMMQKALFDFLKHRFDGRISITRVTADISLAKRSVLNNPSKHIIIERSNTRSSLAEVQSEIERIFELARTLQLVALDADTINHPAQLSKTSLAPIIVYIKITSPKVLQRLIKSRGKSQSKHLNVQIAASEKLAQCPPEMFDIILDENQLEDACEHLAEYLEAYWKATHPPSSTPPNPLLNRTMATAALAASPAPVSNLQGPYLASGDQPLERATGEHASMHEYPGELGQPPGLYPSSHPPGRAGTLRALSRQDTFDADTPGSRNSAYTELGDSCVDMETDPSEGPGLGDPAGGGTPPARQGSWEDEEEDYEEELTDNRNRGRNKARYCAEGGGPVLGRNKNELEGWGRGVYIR
The test can be described thus: Measurement of N-type Ca2+ channel blocking potencies in IMR-32 cells using the fluorescent Ca2+ indicator Indo-1. The format is cell-based. The conditions noted are these: for IC50: K+-stimulated Ca2+ flux, 5 μM nitrendipine to block L-type channels; for inhibition at 1 µM: read-out: IMR 32 % of Blockade @ 1 μM; for inhibition at 10 µM: read-out: IMR 32 % of Blockade @ 10 μM. The procedure:
Measurement of N-type Ca^2+ Channel Blocking Potencies of Compounds in IMR-32 Cells Using the Fluorescent Ca^2+Indicator Indo-1
IMR-32 cells are a human tumoral cell line of neural origin. […] Calcium flux into these cells may be induced by stimulation with elevated potassium concentrations. The L-channel component of calcium flux may be blocked by adding 5 μM nitrendipine. The remaining component of calcium entry into the IMR-32 cells is due to calcium flux through N-type calcium channels. Intracellular calcium concentrations are measured using the fluorescent calcium indicator Indo-1. The effect of drug concentration on calcium uptake is studied.
The IMR-32 cell line was obtained from the American Type Culture Collection (Rockville, Md.). Cells were grown in Eagle's Minimum Essential Medium with Earle's salts supplemented with 10% fetal bovine serum, 2 mM L-Gln and antibiotic/antimycotic mixture (Gibco). […] After 7 to 13 days of differentiation, cells were detached using 0.5 mM EDTA and loaded with 5 μM Indo-1 acetoxymethyl ester (Molecular Probes, Eugene, Oreg.) at 30° C. for 45 minutes. Loaded cells were washed twice, resuspended (˜10^7 cells/mL) in assay buffer (10 mM HEPES/Tris pH 7.4 in Hank's Balanced Salt Solution without bicarbonate or phenol red containing 0.5% bovine serum albumin) and kept on ice until use. Fluorescence measurements were carried out in a Photon Technology International (PTI, South Brunswick, N.J.) Model RF-F3004 spectrofluorometer with dual emission monochromators using excitation at […] and emission at 400 and 490 nm. The instrument was equipped with a thermostated cuvette holder with stirring capabilities as well as with a computer-controlled pump which allowed for reagent addition during measurement. Instrument control and data collection was done by PTI's OSCAR software running on an IBM compatible computer. Different concentrations of the test compounds (60 μL in dimethyl sulfoxide) were added to 5.94 mL of assay buffer containing approximately 3×10^6 loaded cells, and 5 μM Nitrendipine (in […] EtOH) to block L-type Ca^2+ channels. Samples were incubated for 10 minutes at 30° C. and then aliquoted into three 10×10 mm disposable acrylic cuvettes. Emission signals at 400 and 490 nm were acquired from each cuvette at 30° C. for 50 seconds. At 20 seconds after the start of reading, cells were depolarized by the addition of 160 μL of stimulation solution (1 M KCl, 68 mM CaCl2) to the cuvette via the computer-controlled pump. Ratio of dual emission signals (400 nm/490 nm), which is proportional to intracellular Ca^2+ concentration, was plotted against time, and the difference between maximal response after stimulation and basal value (before stimulation) was determined. Values obtained in this way were plotted as a function of drug concentration. IC50 values of test compounds were calculated by fitting a four-parameter logistic function to the data using the least squares method.
A general note: Calcium assays in cells follow changes in intracellular calcium, usually with a dye or a luminescent sensor.

The mark [1] stands for this setting: 1 μM compound, 5 μM nitrendipine.
Where [2] appears, read: 10 μM compound, 5 μM nitrendipine.

For the compound `CC(C)=CCN(c1ccc(OCc2ccccc2)cc1)C1CCN(C(=O)[C@H](CC(C)C)N(C)C)CC1` [Example 23, (S)-1-{4-[(4-Benzyloxy-phenyl)-(3-methyl-but-2-enyl)-amino]-piperidin-1-yl}-2-dimethylamino-4-methyl-pentan-1-one], the responders at 10 mg/kg in the test with DBA/2 mice stood at 40%. Also, the IC50 against N-type Ca2+ channel worked out at 650 nM.
On to `CC(C)CCN(c1ccc(N)cc1)C1CCN(C(=O)[C@H](CC(C)C)NC(=O)N2CCCCCC2)CC1` [Example 35, (S)-Azepane-1-carboxylic acid (1-{4-[(4-amino-phenyl)-(3-methyl-butyl)-amino]-piperidine-1-carbonyl}-3-methyl-butyl)-amide], for which the responders at 30 mg/kg with DBA/2 mice is 20%. Half-maximal inhibition against N-type Ca2+ channel (IC50) was put at 2200 nM.
Turning to `CCC(C)[C@H](N)C(=O)N1CCC(N(CC=C(C)C)c2ccc(OCc3ccccc3)cc2)CC1` (stereo partly drawn) [Example 22, (S)-2-Amino-1-{4-[(4-benzyloxy-phenyl)-(3-methyl-but-2-enyl)-amino]-piperidin-1-yl}-3-methyl-pentan-1-one], the responders at 10 mg/kg in the test with DBA/2 mice turned out to be 100%. For the same compound, the inhibition at 1 µM on N-type Ca2+ channel (setting [1]) came to 39%. In addition, on N-type Ca2+ channel (setting [2]), the inhibition at 10 µM was determined as 90%.
As to `CC(C)=CCN(c1ccc(OCc2ccccc2)cc1)C1CCN(C(=O)[C@@H](N)CC(C)C)CC1` [Example 20, (S)-2-Amino-1-{4-[(4-benzyloxy-phenyl)-(3-methyl-but-2-enyl)-amino]-piperidin-1-yl}-4-methyl-pentan-1-one], the responders at 10 mg/kg in the test with DBA/2 mice turned out to be 100%. The same compound showed a half-maximal inhibitory concentration (IC50) against N-type Ca2+ channel of 2400 nM.
Take `CC(C)=CCN(CC(C)(C)NC(=O)[C@H](CC(C)C)N(C)CC=C(C)C)c1ccc(OCc2ccccc2)cc1` [Example 10, (S)-4-Methyl-2-[methyl-(3-methyl-but-2-enyl)-amino]-pentanoic acid {2-[(4-benzyloxy-phenyl)-(3-methyl-but-2-enyl)-amino]-1,1-dimethyl-ethyl}-amide]: the responders at 30 mg/kg in the test with DBA/2 mice worked out at 80%. Moreover, the inhibition at 1 µM at N-type Ca2+ channel (setting [1]) came out at 54%. Besides, on N-type Ca2+ channel (setting [2]), the inhibition at 10 µM came out at 82%.
In the case of `CC(C)CCN(c1ccc(NCc2ccc(O)cc2)cc1)C1CCN(C(=O)[C@H](CC(C)C)NC(=O)N2CCCCCC2)CC1` [Example 42, (S)-Azepane-1-carboxylic acid (1-{4-[[4-(4-hydroxy-benzylamino)-phenyl]-(3-methyl-butyl)-amino]-piperidine-1-carbonyl}-3-methyl-butyl)-amide], the responders at 30 mg/kg in the test with DBA/2 mice is 20%. At N-type Ca2+ channel, this compound returned an IC50 of 690 nM.
On the same counts, the results for `CC(C)CCN(c1ccc(NCCC(C)(C)C)cc1)C1CCN(C(=O)[C@H](CC(C)C)NC(=O)N2CCCCCC2)CC1` [Example 36, (S)-Azepane-1-carboxylic acid (1-{4-[[4-(3,3-dimethyl-butylamino)-phenyl]-(3-methyl-butyl)-amino]-piperidine-1-carbonyl}-3-methyl-butyl)-amide] are 80% and 180 nM.
In the case of `CC(C)CC(NC(=O)N1CCCCCC1)C(=O)N1CCC(N(CCC(C)O)c2ccc(OCc3ccccc3)cc2)CC1` (centres unmarked) [Example 32, Azepane-1-carboxylic acid (1-{4-[(4-benzyloxy-phenyl)-(3-hydroxy-butyl)-amino]-piperidine-1-carbonyl}-3-methyl-butyl)-amide], in the test on DBA/2 mice, the responders at 30 mg/kg turned out to be 60%. The IC50 against N-type Ca2+ channel was 4600 nM.
For `CC(C)=CCN(c1ccc(OCc2ccccc2)cc1)C1CCN(C(=O)[C@H](CC(C)C)NCCC(C)C)CC1` [Example 25, (S)-1-{4-[(4-Benzyloxy-phenyl)-(3-methyl-but-2-enyl)-amino]-piperidin-1-yl}-4-methyl-2-(3-methyl-butylamino)-pentan-1-one] the same measures were 80% and 480 nM.
`CCN(c1ccc(OCc2ccccc2)cc1)C1CCN(C(=O)[C@H](CC(C)C)NC(=O)N2CCCCCC2)CC1` [Example 30, (S)-Azepane-1-carboxylic acid (1-{4-[(4-benzyloxy-phenyl)-ethyl-amino]-piperidine-1-carbonyl}-3-methyl-butyl)-amide] yielded a half-maximal inhibitory concentration (IC50) against N-type Ca2+ channel of 830 nM.
With `CC(C)=CCN(c1ccc(OCc2ccccc2)cc1)C1CCCN(C(=O)[C@@H](N)CC(C)C)C1` (mixture of isomers) [Example 45, (S, R/S)-2-Amino-1-{3-[(4-benzyloxy-phenyl)-(3-methyl-but-2-enyl)-amino]-piperidin-1-yl}-4-methyl-pentan-1-one], the inhibition at 1 µM on N-type Ca2+ channel (setting [1]) came out at 40%. Further, on N-type Ca2+ channel (setting [2]), the inhibition at 10 µM stood at 100%.
On to `CC(C)=CCN(c1ccc(OCc2ccccc2)cc1)C1CCCN(C(=O)[C@H](CC(C)C)NC(=O)N2CCCCCC2)C1` (mixture of isomers) [Example 46, (S,R/S)-Azepane-1-carboxylic acid (1-{3-[(4-benzyloxy-phenyl)-(3-methyl-but-2-enyl)-amino]-piperidine-1-carbonyl}-3-methyl-butyl)-amide], for which, at N-type Ca2+ channel (setting [1]), the inhibition at 1 µM came to 41%. In addition, the inhibition at 10 µM on N-type Ca2+ channel (setting [2]) was 91%.
`CC(C)CCN(C)[C@@H](CC(C)C)C(=O)NC(C)(C)CN(c1ccc(OCc2ccccc2)cc1)C1C=CCCC1` (stereo partly drawn) [Example 17, (S)-4-Methyl-2-[methyl-(3-methyl-butyl)-amino]-pentanoic acid {2-[(4-benzyloxy-phenyl)-cyclohex-2-enyl-amino]-1,1-dimethyl-ethyl}-amide]: at N-type Ca2+ channel (setting [1]), the inhibition at 1 µM is 57%. At N-type Ca2+ channel (setting [2]), the inhibition at 10 µM worked out at 80%.
In the case of `CC(C)CCN(c1ccc(NCC2CCCCC2)cc1)C1CCN(C(=O)[C@H](CC(C)C)NC(=O)N2CCCCCC2)CC1` [Example 37, (S)-Azepane-1-carboxylic acid (1-{4-[[4-(Cyclohexylmethyl-amino)-phenyl]-(3-methyl-butyl)-amino]-piperidine-1-carbonyl}-3-methyl-butyl)-amide], at N-type Ca2+ channel, the IC50 was found to be 290 nM.
Compound `CC(C)C[C@H](NC(=O)N1CCCCCC1)C(=O)N1CCC(Nc2ccc(OCc3ccccc3)cc2)CC1` [Example 28, (S)-Azepane-1-carboxylic acid {1-[4-(4-benzyloxy-phenylamino)-piperidine-1-carbonyl]-3-methyl-butyl}-amide] had an IC50 at N-type Ca2+ channel of 2500 nM.
Still for that read-out and setting: the result for `CC(C)=CCN(c1ccc(OCc2ccccc2)cc1)C1CCN(C(=O)[C@H](CC(C)C)NC(C)C)CC1` [Example 24, (S)-1-{4-[(4-Benzyloxy-phenyl)-(3-methyl-but-2-enyl)-amino]-piperidin-1-yl}-2-isopropylamino-4-methyl-pentan-1-one] reads 750 nM.
For the compound `CC(C)=CCN(C[C@H](C)NC(=O)[C@H](CC(C)C)NCCC(C)C)c1ccc(OCc2ccccc2)cc1` (relative stereo) [Example 16, [S-(R*,R*)]-4-Methyl-2-(3-methyl-butylamino)-pentanoic acid {2-[(4-benzyloxy-phenyl)-(3-methyl-but-2-enyl)-amino]-1-methyl-ethyl}-amide], on N-type Ca2+ channel (setting [1]), the “IMR 32 % of Blockade @ 1 μM” value was 36%. Moreover, on N-type Ca2+ channel (setting [2]), the “IMR 32 % of Blockade @ 10 μM” value is recorded as 86%.

In general, IC50 refers to the concentration at which inhibition is half-maximal. A low value points to inhibition by little substance.
